Data published in publication PMC8049054, “Systematic Assessment of Fragment Identification for Multitarget Drug Design” (Chemmedchem, 2021).

Target: T1, leukotriene A4 hydrolase (LTA4H) (Homo sapiens, UniProt P09960)
T1 construct: made in house; host or cells: E. coli BL21 (DE3)
T1 sequence (P09960 1-611): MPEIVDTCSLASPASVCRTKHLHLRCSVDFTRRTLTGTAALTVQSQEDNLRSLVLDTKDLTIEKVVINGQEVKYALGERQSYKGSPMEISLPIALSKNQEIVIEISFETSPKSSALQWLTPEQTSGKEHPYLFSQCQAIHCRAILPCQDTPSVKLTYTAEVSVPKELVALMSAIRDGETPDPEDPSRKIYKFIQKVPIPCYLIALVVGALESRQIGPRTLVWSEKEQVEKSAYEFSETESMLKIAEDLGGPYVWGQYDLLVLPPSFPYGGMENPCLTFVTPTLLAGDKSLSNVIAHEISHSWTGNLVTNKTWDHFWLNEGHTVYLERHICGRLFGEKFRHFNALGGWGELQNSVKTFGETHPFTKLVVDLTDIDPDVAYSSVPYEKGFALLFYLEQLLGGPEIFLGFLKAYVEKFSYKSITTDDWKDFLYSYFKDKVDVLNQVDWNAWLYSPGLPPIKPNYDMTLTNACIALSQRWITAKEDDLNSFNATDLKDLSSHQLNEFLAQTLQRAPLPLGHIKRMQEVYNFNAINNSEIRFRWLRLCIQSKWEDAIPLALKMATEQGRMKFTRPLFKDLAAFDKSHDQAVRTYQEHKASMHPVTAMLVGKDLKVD
Assay: LTA4H activity assay (fluorogenic substrate Arg-AMC)
Format: biochemical
Conditions: for LTA4H LE: ligand efficiency calculated from IC50; for IC50: mean±standard deviation of three independent experiments
Experimental: For hit validation, we employed secondary assays with orthogonal readouts to confirm fragment activities. Biochemical activity assays were chosen for the enzymes sEH, LTA4H, and 5‐LOX. […] RXRα and FXR modulation was assessed in cell‐based hybrid reporter gene assays. All ten compounds were tested at a single concentration of 500 μM in the sEH and LTA4H activity assays and with a concentration of 100 μM on 5‐LOX, RXRα, and FXR. Fragments showing an inhibition greater than 50 % (sEH‐H and LTA4H) or greater than 70 % (5‐LOX) as well as the hits determined in the DSF experiments were further characterized in full concentration‐response curves between 0.1 and 1000 μM. […] As alternative cell‐free assay we employed isothermal titration calorimetry (ITC) to determine binding affinity of the fragments towards the LBDs of both nuclear receptors. ITC was performed with a protein concentration of 50 μM and compound concentrations of 250 μM.
The 10 fragments showing dual activity in the DSF experiments were validated by functional assay screening with a fixed concentration of 500 µM in case of sEH-H and LTA4H, 100 µM in case of 5-LOX and 30 µM, 10 µM and 5 µM in case of FXR and […]
% (5-LOX) as well as the hits determined in the DSF experiments were further measured with concentrations between 1000 µM and 0.1 µM (sEH-H and LTA4H) and between 300 µM and 1 µM (5-LOX). The sEH and LTA4H activity assays were performed as triplicate and repeated 3 times. The 5-LOX activity assay was performed with one point per concentration and repeated 3 times Raw data was first analyzed in Microsoft Office Excel (2013), before IC50 curves were plotted and further analyzed using GraphPad Prism 7 and GraphPad Prism 8 for the shown graphs .
The eight approved drugs were measured in the orthogonal assay systems analogous to the fragments. The approved drugs were […]
For the sEH-H and LTA4H, they were measured as triplicate in concentrations between 1000 µM and 1 µM and each measurement was repeated three times. […]
Raw data was processed according to the fragments. […]
The LTA4H activity assay was performed adapted from Hiesinger et al.3.As in the sEH-H measurement 1 µl of compound dilution in DMSO or pure DMSO (for the positive and negative control) was placed in a black 96-well plate (Thermo Scientific™ Nunc™ F96 MicroWell™ Black Polystyrene Plate) and then 89 µl of protein-mix or buffer mix (without protein as negative control) were added and incubated for 30 min at room temperature.

LTA4H LE | IC50 | SMILES
 | 3 ± 0.5 µM | Oc1ccc(Cc2ccccc2)cc1 [Compound 4]
 | > 300 µM | CCN(Cc1ccccc1)c1ccccc1 [Compound 7]
0.31 kcal/mol | 255 ± 24.9 µM | Fc1ccc(-c2c[nH]c3ccccc23)cc1 [Compound 10]

More lines, now with the values behind:

SMILES | LTA4H LE | IC50
CCCCOc1cc(C(=O)OC)ccc1N [Compound 3] | 0.39 kcal/mol | 24.6 ± 3.2 µM
Oc1ccc2cc[nH]c2c1 [Compound 5] |  | > 300 µM
Oc1ccc(-c2ccc(F)cc2F)cc1 [Compound 9] | 0.40 kcal/mol | 36.2 ± 7.6 µM
